Values quoted from earlier work, collected in PMC12506672, “A phase I study of HEC73543, an oral FLT3 inhibitor: the effect of food on pharmacokinetics after oral dosing in healthy Chinese volunteers” (Frontiers in Pharmacology, 2025).

Tests used:
[1] = parameters: method as in James et al., 2020; settings: high-fat meal, healthy subjects; ref James et al., 2020
[2] = system: FLT3-ITD–positive leukemia samples; parameters: method as in Cucchi et al., 2018; settings: ex vivo, especially high allelic ratio (AR ≥ 0.5); ref Cucchi et al., 2018
[3] = parameters: method as in Kim, 2017; settings: standard or high-fat meal compared to fasting; ref Kim, 2017

| GLSM ratio (fed/fasted %) for AUC0–t [1] | GLSM ratio (fed/fasted %) for AUC0–∞ [1] | GLSM ratio (fed/fasted %) for AUC72 [1] | GLSM ratio (fed/fasted %) for Cmax [1] | delay of Tmax with food [3] | increase of AUC exposure with food [3] | lowering of Cmax with food [3] | Compound | colony-forming capacity [2] |
| --- | --- | --- | --- | --- | --- | --- | --- | --- |
| 94.6% | 93.8% | 91.0% | 74.0% |  |  |  | CCc1nc(C(N)=O)c(Nc2ccc(N3CCC(N4CCN(C)CC4)CC3)c(OC)c2)nc1NC1CCOCC1 [gilteritinib] | markedly suppresses |
|  |  |  |  | 2.5 to 3 h | 1.2- to 1.6 fold | 20%–27% | CO[C@@H]1[C@H](N(C)C(=O)c2ccccc2)C[C@H]2O[C@]1(C)n1c3ccccc3c3c4c(c5c6ccccc6n2c5c31)C(=O)NC4 [midostaurin] |  |
